# Measurements: patent US20250092039A1, “GLUTARIMIDE-CONTAINING PAN-KRAS-MUTANT DEGRADER COMPOUNDS AND USES THEREOF” (Tiger Biotherapeutics Inc., priority 2022, published 2025)
# Tests used:
# [1] = molecular target: KRAS-G12V/RAF1 (Homo sapiens (Human), UniProt P01116, G12V); assay: KRAS/RAF1 binding inhibition assay (AlphaScreen)
# Summary of the method: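 Binding of GppNHp-loaded KRAS G12V to the RAF1 RBD was measured by AlphaScreen with test compound present in 2% DMSO (final), 60 min incubation at 4° C. Signals were converted to % inhibition versus DMSO, and IC50 was obtained by variable-slope nonlinear regression.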
# [2] = molecular target: KRAS G12V (Homo sapiens (Human), UniProt P01116, G12V); assay: KRAS G12V degradation in SW620 cells (Western blot, DC50); format: cell-based; settings: 24 hours
# Summary of the method: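 SW620 cells (homozygous KRAS G12V) were treated with compound for 24 hours at 37° C. KRAS in lysates was measured by Western blot with fluorescent secondary antibodies and expressed relative to DMSO vehicle (100%). DC50 came from a four-parameter variable-slope dose-response fit.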
# [3] = test system: SW620 cells; assay: 3D cell growth inhibition of SW620 cells carrying endogenous KRAS G12V mutation (CellTiter-Glo 3D, GI50); format: cell-based; settings: Homo sapiens, SW-620, 144 h; SW620 cells, 6 days; read-out: SW620 3D cell growth GI50
# Summary of the method: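 SW620 cells (endogenous KRAS G12V) grown in 3D were dosed next day with compound from DMSO stocks at various concentrations, then incubated 6 days at 37° C.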
# KRAS G12V, sequence (P01116-2 other isoform, or with tags, fused parts or gaps G12V): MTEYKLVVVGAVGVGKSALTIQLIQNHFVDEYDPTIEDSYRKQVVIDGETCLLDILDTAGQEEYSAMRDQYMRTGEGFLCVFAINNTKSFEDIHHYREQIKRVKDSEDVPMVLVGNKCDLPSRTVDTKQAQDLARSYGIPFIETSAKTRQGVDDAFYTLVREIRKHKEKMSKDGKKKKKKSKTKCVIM
# KRAS-G12V/RAF1, sequence (P01116-2 other isoform, or with tags, fused parts or gaps G12V): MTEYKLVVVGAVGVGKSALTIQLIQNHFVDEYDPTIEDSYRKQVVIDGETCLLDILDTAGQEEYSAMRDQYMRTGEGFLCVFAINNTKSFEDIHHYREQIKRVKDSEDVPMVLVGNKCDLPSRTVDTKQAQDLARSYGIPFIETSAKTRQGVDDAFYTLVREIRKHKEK
SMILES,IC50 [1],DC50 [2],GI50 [3]
"CCc1c(F)ccc2cc(O)cc(-c3ncc4c(N5CCC[C@@](C)(O)C5)nc(OCC5(CN6CCC(N7CC8(CN(c9ccc%10c(c9)CN(C9CCC(=O)NC9=O)C%10=O)C8)C7)CC6)CC5)nc4c3F)c12 (stereo partly drawn) [Compound 154, 3-(5-(6-(1-((1-(((7-(8-ethyl-7-fluoro-3-hydroxynaphthalen-1-yl)-8-fluoro-4-((R)-3-hydroxy-3-methylpiperidin-1-yl)pyrido[4,3-d]pyrimidin-2-yl)oxy)methyl)cyclopropyl)methyl)piperidin-4-yl)-2,6-diazaspiro[3.3]heptan-2-yl)-1-oxoisoindolin-2-yl)piperidine-2,6-dione]",< 20 nM,< 1 nM,< 10 nM
"CCc1cccc2cc(O)cc(-c3ncc4c(N5CCC[C@@](C)(O)C5)nc(OCC5(CN6CCC(OC7CC8(CCN(c9ccc%10c(c9)CN(C9CCC(=O)NC9=O)C%10=O)CC8)C7)CC6)CC5)nc4c3F)c12 (stereo partly drawn) [Compound 181, 3-(5-(2-((1-((1-(((7-(8-ethyl-3-hydroxynaphthalen-1-yl)-8-fluoro-4-((R)-3-hydroxy-3-methylpiperidin-1-yl)pyrido[4,3-d]pyrimidin-2-yl)oxy)methyl)cyclopropyl)methyl)piperidin-4-yl)oxy)-7-azaspiro[3.5]nonan-7-yl)-1-oxoisoindolin-2-yl)piperidine-2,6-dione]",> 200 nM,< 1 nM,< 10 nM
"CCc1c(F)ccc2cc(O)cc(-c3ncc4c(NCC5(N(C)C)CCC5)nc(OCC5(CN6CCC7(CC6)CC(CN6CCN(c8ccc9c(c8)CN([C@H]8CCC(=O)NC8=O)C9=O)CC6)C7)CC5)nc4c3F)c12 [Compound 3, (S)-3-(5-(4-((7-((1-(((4-(((1-(dimethylamino)cyclobutyl)methyl)amino)-7-(8-ethyl-7-fluoro-3-hydroxynaphthalen-1-yl)-8-fluoropyrido[4,3-d]pyrimidin-2-yl)oxy)methyl)cyclopropyl)methyl)-7-azaspiro[3.5]nonan-2-yl)methyl)piperazin-1-yl)-1-oxoisoindolin-2-yl)piperidine-2,6-dione]",> 200 nM,> 100 nM,> 100 nM
"CCc1cccc2cc(O)cc(-c3ncc4c(N5CCC[C@@](C)(O)C5)nc(OCC5(CN6CCC(N7CC8(CCN(c9ccc%10c(c9)CN([C@H]9CCC(=O)NC9=O)C%10=O)CC8)C7)CC6)CC5)nc4c3F)c12 [Compound 30, (S)-3-(5-(2-(1-((1-(((7-(8-ethyl-3-hydroxynaphthalen-1-yl)-8-fluoro-4-((R)-3-hydroxy-3-methylpiperidin-1-yl)pyrido[4,3-d]pyrimidin-2-yl)oxy)methyl)cyclopropyl)methyl)piperidin-4-yl)-2,7-diazaspiro[3.5]nonan-7-yl)-1-oxoisoindolin-2-yl)piperidine-2,6-dione]",< 20 nM,1 to 10 nM,< 10 nM
"CCc1cccc2cc(O)cc(-c3ncc4c(N5CCC[C@@](C)(O)C5)nc(OCC5(CN6CC7(CCC(N8CCN(c9ccc%10c(c9)CN([C@H]9CCC(=O)NC9=O)C%10=O)CC8)CC7)C6)CC5)nc4c3F)c12 [Compound 141, (S)-3-(5-(4-(2-((1-(((7-(8-ethyl-3-hydroxynaphthalen-1-yl)-8-fluoro-4-((R)-3-hydroxy-3-methylpiperidin-1-yl)pyrido[4,3-d]pyrimidin-2-yl)oxy)methyl)cyclopropyl)methyl)-2-azaspiro[3.5]nonan-7-yl)piperazin-1-yl)-1-oxoisoindolin-2-yl)piperidine-2,6-dione]",< 20 nM,> 100 nM,> 100 nM
"CCc1cccc2cc(O)cc(-c3ncc4c(N5CCC[C@@](C)(O)C5)nc(OCC5(CN6CC[C@H](CN7CC8(CCN(c9ccc%10c(c9)CN(C9CCC(=O)NC9=O)C%10=O)CC8)C7)C6)CC5)nc4c3F)c12 (stereo partly drawn) [Compound 22, 3-(5-(2-(((S)-1-((1-(((7-(8-ethyl-3-hydroxynaphthalen-1-yl)-8-fluoro-4-((R)-3-hydroxy-3-methylpiperidin-1-yl)pyrido[4,3-d]pyrimidin-2-yl)oxy)methyl)cyclopropyl)methyl)pyrrolidin-3-yl)methyl)-2,7-diazaspiro[3.5]nonan-7-yl)-1-oxoisoindolin-2-yl)piperidine-2,6-dione]",< 20 nM,> 100 nM,10 to 100 nM
"C#Cc1c(F)ccc2cc(N)cc(-c3ncc4c(N5CCC[C@@](C)(O)C5)nc(OCC5(CN6CCC7(CC6)CC(CN6CCN(c8ccc9c(c8)CN([C@H]8CCC(=O)NC8=O)C9=O)CC6)C7)CC5)nc4c3F)c12 [Compound 119, (S)-3-(5-(4-((7-((1-(((7-(3-amino-8-ethynyl-7-fluoronaphthalen-1-yl)-8-fluoro-4-((R)-3-hydroxy-3-methylpiperidin-1-yl)pyrido[4,3-d]pyrimidin-2-yl)oxy)methyl)cyclopropyl)methyl)-7-azaspiro[3.5]nonan-2-yl)methyl)piperazin-1-yl)-1-oxoisoindolin-2-yl)piperidine-2,6-dione]",> 200 nM,> 100 nM,> 100 nM

# Second part, the compound after the results:
IC50 [1],DC50 [2],GI50 [3],SMILES
20 to 200 nM,> 100 nM,10 to 100 nM,"CCc1c(F)ccc2cc(O)cc(-c3ncc4c(N5CCC[C@@](C)(O)C5)nc(OCC5(CN6CC(CN7CCC(N8CCN(c9ccc%10c(c9)CN([C@H]9CCC(=O)NC9=O)C%10=O)CC8)CC7)C6)CC5)nc4c3F)c12 [Compound 149, (S)-3-(5-(4-(1-((1-((1-(((7-(8-ethyl-7-fluoro-3-hydroxynaphthalen-1-yl)-8-fluoro-4-((R)-3-hydroxy-3-methylpiperidin-1-yl)pyrido[4,3-d]pyrimidin-2-yl)oxy)methyl)cyclopropyl)methyl)azetidin-3-yl)methyl)piperidin-4-yl)piperazin-1-yl)-1-oxoisoindolin-2-yl)piperidine-2,6-dione]"
< 20 nM,< 1 nM,< 10 nM,"CCc1c(F)ccc2cc(O)cc(-c3ncc4c(N5CCOC[C@@](C)(O)C5)nc(OCC5(CN6CCC7(CC6)CC(F)(CN6CCN(c8ccc9c(c8)CN([C@H]8CCC(=O)NC8=O)C9=O)CC6)C7)CC5)nc4c3F)c12 [Compound 175, (S)-3-(5-(4-((7-((1-(((7-(8-ethyl-7-fluoro-3-hydroxynaphthalen-1-yl)-8-fluoro-4-((S)-6-hydroxy-6-methyl-1,4-oxazepan-4-yl)pyrido[4,3-d]pyrimidin-2-yl)oxy)methyl)cyclopropyl)methyl)-2-fluoro-7-azaspiro[3.5]nonan-2-yl)methyl)piperazin-1-yl)-1-oxoisoindolin-2-yl)piperidine-2,6-dione]"
> 200 nM,1 to 10 nM,> 100 nM,"CCc1c(F)ccc2cc(O)cc(-c3ncc4c(N5CCC[C@@H](O)CC5)nc(OCC5(CN6CCC7(CC6)CC(CN6CCN(c8ccc9c(c8)CN([C@H]8CCC(=O)NC8=O)C9=O)CC6)C7)CC5)nc4c3F)c12 [Compound 116, (S)-3-(5-(4-((7-((1-(((7-(8-ethyl-7-fluoro-3-hydroxynaphthalen-1-yl)-8-fluoro-4-((R)-4-hydroxyazepan-1-yl)pyrido[4,3-d]pyrimidin-2-yl)oxy)methyl)cyclopropyl)methyl)-7-azaspiro[3.5]nonan-2-yl)methyl)piperazin-1-yl)-1-oxoisoindolin-2-yl)piperidine-2,6-dione]"
20 to 200 nM,< 1 nM,< 10 nM,"CCc1c(F)ccc2cc(O)cc(-c3ncc4c(N5CCC[C@@](C)(O)C5)nc(OCC5(CN6CCN(C7CC8(C7)CN(c7ccc9c(c7)CN(C7CCC(=O)NC7=O)C9=O)C8)CC6)CC5)nc4c3F)c12 (stereo partly drawn) [Compound 161, 3-(5-(6-(4-((1-(((7-(8-ethyl-7-fluoro-3-hydroxynaphthalen-1-yl)-8-fluoro-4-((R)-3-hydroxy-3-methylpiperidin-1-yl)pyrido[4,3-d]pyrimidin-2-yl)oxy)methyl)cyclopropyl)methyl)piperazin-1-yl)-2-azaspiro[3.3]heptan-2-yl)-1-oxoisoindolin-2-yl)piperidine-2,6-dione]"
20 to 200 nM,< 1 nM,< 10 nM,"CCc1c(F)ccc2cc(O)cc(-c3ncc4c(N5CCC[C@@](C)(O)C5)nc(OCC5(CN6CC(N7CCC8(CC7)CN(c7ccc9c(c7)CN(C7CCC(=O)NC7=O)C9=O)C8)C6)CC5)nc4c3F)c12 (stereo partly drawn) [Compound 152, 3-(5-(7-(1-((1-(((7-(8-ethyl-7-fluoro-3-hydroxynaphthalen-1-yl)-8-fluoro-4-((R)-3-hydroxy-3-methylpiperidin-1-yl)pyrido[4,3-d]pyrimidin-2-yl)oxy)methyl)cyclopropyl)methyl)azetidin-3-yl)-2,7-diazaspiro[3.5]nonan-2-yl)-1-oxoisoindolin-2-yl)piperidine-2,6-dione]"
> 200 nM,> 100 nM,> 100 nM,"CCc1c(F)ccc2cc(N)cc(-c3ncc4c(N5CCC[C@@](C)(O)C5)nc(OCC5(CN6CCC(CN7CCN(c8ccc9c(c8)CN([C@H]8CCC(=O)NC8=O)C9=O)CC7)CC6)CC5)nc4c3F)c12 [Compound 89, (S)-3-(5-(4-((1-((1-(((7-(3-amino-8-ethyl-7-fluoronaphthalen-1-yl)-8-fluoro-4-((R)-3-hydroxy-3-methylpiperidin-1-yl)pyrido[4,3-d]pyrimidin-2-yl)oxy)methyl)cyclopropyl)methyl)piperidin-4-yl)methyl)piperazin-1-yl)-1-oxoisoindolin-2-yl)piperidine-2,6-dione]"
